Columns and labels:
[1] = target: recombinant human AMPK complex 7 (containing α2β1γ1) (Homo sapiens, UniProt P54646+Q9Y478); experiment: in vitro AMPK activation assay (AMPKSAMSF); type: biochemical; details: for EC50: inflection point reflecting 50% of the maximum activation, human AMPK Complex 7; for Emax: recombinant human AMPK complex 7 (α2β1γ1), 10-point titration expressed as % maximum AMP activation
Description: The recombinant human AMPK complex 1 (containing α1β1γ1) or AMPK complex 7 (containing α2β1γ1) was obtained from baculovirus expression system. Recombinant viruses were generated by cotransfection of AMPK/pBacPak9 clones with Baculogold baculovirus DNA (Pharmingen) in spodoptera frugiperda 21 cells according to the manufacturer's instructions. Each round of virus amplification was performed for 5 days in Grace's medium containing 10% serum. Virus that had been subjected to three rounds of amplification was used for all protein production procedures. To express the AMPK complex, sf21 cells were adapted to serum free medium (SF900 II, Invitrogen) by sequential dilution from serum containing stocks into SF900II medium and maintained in shaker flasks at 90 rpm at 27° C. The recombinant AMPK enzyme complex was produced by triple infection, one recombinant virus for each of the subunits, in sf21 cells under serum free conditions. Cells were infected in log phase, 1×10^6 cells/ml, at a multiplicity of infection of ˜5. Cells were harvested by centrifugation at 10,000×g for 15 minutes after 72 hours of infection with viruses. The insect cell pellet from 2 liters of culture was resuspended in 50 ml lysis buffer (20 mM Tris-HCl, 50 mM NaCl, 50 mM NaF, 30 mM Na PPi, 0.25 M sucrose, 10 mM ZnCl2, 2 mM DTT, 0.4 mg/ml digitonin) and subjected to two cycles of freeze-thaw lysis in a dry-ice ethanol bath. Insoluble material was removed by centrifugation at 10,000×g and the supernatant was fractionated with use of polyethylene glycol (PEG). The protein fraction precipitating between 2.5 and 6% PEG was used for further purification using a Blue-Sepharose step (Zhou et al, J. Clin. Invest. 108, 1167-1174, 2001).
The in vitro AMPK activation assay is performed in a volume of 30 μl in a 384-well plate. Enzyme reactions were assembled in the microtiter plate by adding 15 μl of 2× enzyme in assay buffer (20 mM HEPES, pH 7.3, 5 mM MgCl2, 3 mM DTT, 0.01% Brij 35 and CamK Kinase, to activate AMPK) to wells which contained either DMSO or compound. The reaction was initiated with the addition of 15 μl 2× substrate mixture containing 200 μM ATP, and 3.0 μM fluorescently labeled SAMS (5-FAM-HMRSAMSGLHLVKRR-COOH) in assay buffer. After 45-minute incubation at 25° C., the reaction was stopped by the addition of 70 μl stop buffer (100 mM HEPES, pH 7.3, 40 mM EDTA, 0.015% Brij 35). Phosphorylated 5-FAM SAMS product is assessed using a Caliper EZ Reader LabChip microfluidics reader. Product conversion is determined by calculating the peak heights of the substrate and product and reporting the product/(product+substrate) peak ratio. The 10-point titration data were expressed as % maximum AMP activation. The results were plotted using 4 parameter fit and the inflection point reflecting 50% of the maximum activation was reported as the EC50.

[2] = tested on: ob/ob and db/db mice; details: following 8 weeks of administration; cited from earlier work

recombinant human AMPK complex 7 (containing α2β1γ1), sequence (P54646 whole entry): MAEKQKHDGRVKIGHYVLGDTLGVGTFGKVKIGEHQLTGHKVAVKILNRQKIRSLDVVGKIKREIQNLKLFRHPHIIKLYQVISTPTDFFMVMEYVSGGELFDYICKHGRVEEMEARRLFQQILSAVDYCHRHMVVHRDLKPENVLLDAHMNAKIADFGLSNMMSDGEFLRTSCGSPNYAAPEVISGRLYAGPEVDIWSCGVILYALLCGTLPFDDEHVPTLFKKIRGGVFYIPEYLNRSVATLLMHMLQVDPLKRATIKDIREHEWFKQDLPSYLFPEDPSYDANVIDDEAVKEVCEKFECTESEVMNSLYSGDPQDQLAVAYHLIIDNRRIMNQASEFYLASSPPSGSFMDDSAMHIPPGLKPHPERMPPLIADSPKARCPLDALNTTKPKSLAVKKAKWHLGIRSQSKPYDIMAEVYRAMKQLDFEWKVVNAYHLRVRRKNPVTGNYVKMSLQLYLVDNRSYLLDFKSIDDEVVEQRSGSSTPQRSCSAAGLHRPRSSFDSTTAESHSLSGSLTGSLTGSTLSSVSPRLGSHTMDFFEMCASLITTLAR
recombinant human AMPK complex 7 (containing α2β1γ1), sequence (Q9Y478 whole entry): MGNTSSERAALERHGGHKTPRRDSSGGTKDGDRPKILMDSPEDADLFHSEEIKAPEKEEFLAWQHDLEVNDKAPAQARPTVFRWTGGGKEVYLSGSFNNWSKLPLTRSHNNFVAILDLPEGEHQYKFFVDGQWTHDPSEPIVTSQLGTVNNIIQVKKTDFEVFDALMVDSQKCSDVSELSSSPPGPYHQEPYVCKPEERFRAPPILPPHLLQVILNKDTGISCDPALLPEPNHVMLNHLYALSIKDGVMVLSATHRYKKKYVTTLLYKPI
recombinant human AMPK complex 7 (containing α2β1γ1), sequence (P54619 whole entry partner): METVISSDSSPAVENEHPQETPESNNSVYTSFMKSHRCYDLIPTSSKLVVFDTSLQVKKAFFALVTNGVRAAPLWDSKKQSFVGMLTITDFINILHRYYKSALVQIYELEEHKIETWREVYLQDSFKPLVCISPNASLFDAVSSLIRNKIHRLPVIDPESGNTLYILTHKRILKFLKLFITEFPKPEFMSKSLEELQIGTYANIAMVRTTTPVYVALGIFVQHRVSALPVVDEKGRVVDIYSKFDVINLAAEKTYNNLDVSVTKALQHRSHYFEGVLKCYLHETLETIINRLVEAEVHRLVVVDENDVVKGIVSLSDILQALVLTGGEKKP

Row | Compound | EC50 [1] | Emax [1] | blood glucose reduction [2]
1 | OC[C@H]1OC[C@@H](Oc2nc3nc(-c4ccc(-c5ccc(-n6cnnn6)cc5)cc4)c(Cl)cc3[nH]2)[C@@H]1O [Example 7, (2R,3R,4R)-4-[[6-chloro-5-[4-[4-(tetrazol-1-yl)phenyl]phenyl]-1H-imidazo[4,5-b]pyridin-2-yl]oxy]-2-(hydroxymethyl)tetrahydrofuran-3-ol] | 3 nM | 282% | –
2 | OC[C@H]1OC[C@@H](Oc2nc3nc(-c4ccc(-c5cccc(F)c5)cc4)c(Cl)cc3[nH]2)[C@@H]1O [Example 19] | 126 nM | 231% | –
3 | O=C(O)[C@H]1OC[C@@H](Oc2nc3nc(-c4ccc(-c5ccccc5)cc4)c(Cl)cc3[nH]2)[C@@H]1O [Example 12, (2S,3S,4R)-4-[[6-chloro-5-(4-phenylphenyl)-1H-imidazo[4,5-b]pyridin-2-yl]oxy]-3-hydroxy-tetrahydrofuran-2-carboxylic acid] | 332 nM | 313% | –
4 | OC[C@H]1OC[C@@H](Oc2nc3nc(-c4ccc(-c5ccccc5F)cc4)c(Cl)cc3[nH]2)[C@@H]1O [Example 18] | 32 nM | 294% | –
5 | OC[C@H]1OC[C@@H](Oc2nc3nc(-c4ccc(-c5ccc(F)cc5)cc4)c(Cl)cc3[nH]2)[C@@H]1O [Example 23] | 38 nM | 231% | –
6 | CC(C)(F)Cn1cc2c(n1)CN(c1ccc(-c3nc4nc(O[C@@H]5CO[C@H](CO)[C@H]5O)[nH]c4cc3Cl)cc1)C2 [Example 9, (2R,3R,4R)-4-[[6-chloro-5-[4-[2-(2-fluoro-2-methyl-propyl)-4,6-dihydropyrrolo[3,4-c]pyrazol-5-yl]phenyl]-1H-imidazo[4,5-b]pyridin-2-yl]oxy]-2-(hydroxymethyl)tetrahydrofuran-3-ol] | 11 nM | 294% | –
7 | OC[C@H]1OC[C@@H](Oc2nc3nc(-c4ccc(-c5ccccc5)cc4)c(Cl)cc3[nH]2)[C@@H]1O [Example 3] | 13 nM | 338% | –
8 | C[C@]1(O)[C@@H](CO)OC[C@H]1Oc1nc2nc(-c3ccc(-c4ccccc4)cc3)c(Cl)cc2[nH]1 [Example 14, (2R,3S,4R)-4-[[6-chloro-5-(4-phenylphenyl)-1H-imidazo[4,5-b]pyridin-2-yl]oxy]-2-(hydroxymethyl)-3-methyl-tetrahydrofuran-3-ol] | 289 nM | 203% | –
9 | OC[C@H]1OC[C@@H](Oc2nc3nc(-c4ccc(-c5ccc(-n6cccn6)nc5)cc4)c(Cl)cc3[nH]2)[C@@H]1O [Example 1, (2R,3R,4R)-4-[[6-chloro-5-[4-(6-pyrazol-1-yl-3-pyridyl)phenyl]-1H-imidazo[4,5-b]pyridin-2-yl]oxy]-2-(hydroxymethyl)tetrahydrofuran-3-ol] | 16 nM | 188% | –
10 | CC(C)(O)Cc1cnn(-c2ccc(-c3ccc(-c4nc5nc(O[C@@H]6CO[C@H](CO)[C@H]6O)[nH]c5cc4Cl)cc3)cc2)c1 [Example 6] | 5 nM | 268% | –
11 | N#CCCn1nnnc1-c1ccc(-c2ccc(-c3nc4nc(O[C@@H]5CO[C@H](CO)[C@H]5O)[nH]c4cc3Cl)cc2)cc1 [Example 20] | 8 nM | 242% | –
12 | OC[C@H]1OC[C@@H](Oc2nc3nc(-c4ccc(-c5ccc(-n6nccn6)cc5)cc4)c(Cl)cc3[nH]2)[C@@H]1O [Example 4, (2R,3R,4R)-4-[[6-chloro-5-[4-[4-(triazol-2-yl)phenyl]phenyl]-1H-imidazo[4,5-b]pyridin-2-yl]oxy]2-(hydroxymethyl)tetrahydrofuran-3-ol] | 20 nM | 206% | –
13 | NC(=O)c1ncn([C@@H]2O[C@H](CO)[C@@H](O)[C@H]2O)c1N [AICAR] | – | – | 35%

The remaining molecules from weak to strong by EC50 [1], led by results:

Row | EC50 [1] | Emax [1] | Compound | blood glucose reduction [2]
14 | 3650 nM | 209% | OC[C@H]1OC[C@@H](Oc2nc3nc(-c4ccc(Br)cc4)c(Cl)cc3[nH]2)[C@@H]1O [Example 10, (2R,3R,4R)-4-[[5-(4-bromophenyl)-6-chloro-1H-imidazo[4,5-b]pyridin-2-yl]oxy]-2-(hydroxymethyl)tetrahydrofuran-3-ol] | –
15 | 85 nM | 307% | OC[C@H]1OC[C@@H](Oc2nc3nc(-c4ccc(-c5ccc(F)cc5F)cc4)c(Cl)cc3[nH]2)[C@@H]1O [Example 21] | –
16 | 9 nM | 332% | CC(C)(O)Cn1cc2c(n1)CN(c1ccc(-c3nc4nc(O[C@@H]5CO[C@H](CO)[C@H]5O)[nH]c4cc3Cl)cc1)C2 [Example 8, (2R,3R,4R)-4-[[6-chloro-5-[4-[2-(2-hydroxy-2-methyl-propy)-4,6-dihydropyrrolo[3,4-c]pyrazol-5-yl]phenyl]-1H-imidazo[4,5-b]pyridin-2-yl]oxy]-2-(hydroxymethyl)-tetrahydrofuran-3-ol; 2,2,2-trifluoroacetic acid] | –
17 | 5 nM | 252% | OC[C@H]1OC[C@@H](Oc2nc3nc(-c4ccc(-c5ccc(N6CCOCC6)cc5)cc4)c(Cl)cc3[nH]2)[C@@H]1O [Example 22] | –
18 | 4 nM | 315% | OC[C@H]1OC[C@@H](Oc2nc3nc(-c4ccc(-c5ccc(-n6cccn6)cc5)cc4)c(Cl)cc3[nH]2)[C@@H]1O [Example 2] | –
19 | 2 nM | 261% | OC[C@H]1OC[C@@H](Oc2nc3nc(-c4ccc(-c5ccc(-n6cncn6)cc5)cc4)c(Cl)cc3[nH]2)[C@@H]1O [Example 5, (2R,3R,4R)-4-[[6-chloro-5-[4-[4-(1,2,4-triazol-1-yl)phenyl]phenyl]-1H-imidazo[4,5-b]pyridin-2-yl]oxy]-2-(hydroxymethyl)tetrahydrofuran-3-ol] | –

Reference: patent publication US9868733B2, “Azabenzimidazole tetrahydrofuran derivatives” (Merck Sharp & Dohme Corp., priority 2012, dated 2018)
